Data set [1] can be described thus: Electrometric titration (pKa). It is filed as physicochemical. Particulars: electrometric titration in 66% aqueous dimethylformamide; read-out: pKa value of titratable group. The source says: Electrometric titration of DOMM in 66% aqueous dimethylformamide indicates the presence of a titratable group with a pKa value of about 7.14.
Data set [2] in a line: Solubility. Particulars: water and most polar organic solvents (acetone, methanol, ethanol, chloroform, dimethylformamide, dimethyl sulfoxide). It is filed as physicochemical. An excerpt: DOMM acid addition salts are more soluble in water than is DOMM base.

The values below come from EP0045157A1, “Macrolide antibiotics, their preparation and veterinary compositions containing them” (ELI LILLY AND COMPANY, priority 1980, dated 1982).

For `CCC1OC(=O)CC(O)C(C)C(OC2OC(C)C(OC3CC(C)(O)C(O)C(C)O3)C(N(C)C)C2O)C(CC=O)CC(C)C(=O)C=CC(C)=CC1COC1OC(C)C(O)C(O)C1O` (centres unmarked) [DOMM, 2"'-O-demethylmacrocin], the pKa (in general, the pH at which an ionisable group is half protonated) in data set [1] is around 7.14. Also, the solubility result in data set [2] is “soluble in water and in most polar organic solvents”.
